Results as given in patent US10406264B2, “Peptide having titanium-binding ability” (NANO INTELLIGENT BIOMEDICAL ENGINEERING CORPORATION. CO. LTD, priority 2016, dated 2019).
Where a SMILES comes first, the peptide text is derived from it. Where no end group is shown, it is not given here. [ ]: non-standard residue; d: D form. Ahx = NCCCCCC(=O)O

Experiments:
[1] = binding assay using an avidin-biotin complex (binding affinity for titanium); conditions: biotin-labeled peptide 100 nM to 1 μM, 15 hours at room temperature, FIG. 1
Protocol: In order to examine the binding affinities of the peptides synthesized in Example 1 and Comparative Examples 1 and 2 for titanium, the peptides were labeled with biotin. Each of the peptides was biotinylated using EZ-Link Sulfo-NHS-Biotin (Pierce Biotechnology, USA) according to the manufacturer's instruction, and unbound byproducts were removed by ultrafiltration that is a membrane separation method based on a pressure difference. The molecular weights of the synthesized products were measured by mass spectrometry. The synthesized products were analyzed and purified by reverse phase liquid chromatography. For analysis, a C18 column having a diameter of 4.6 mm was used, and 0.1% TFA/H2O and 0.092% TFA/acetonitrile were flushed onto the column at a rate of 1 ml/min with a gradient of 0-60% for 30 minutes. The wavelength of the UV detector used was 220 nm. For purification, a column having a diameter of 2.2 cm was used, and a flow rate of 20 ml/min and the solvent and detection wavelength as described above were used. Only the biotin-labeled peptide fraction was collected, and concentrated using a rotary evaporator to remove the solvent, followed by freeze-drying.
The binding affinity of the titanium-binding peptide for titanium was measured by performing a binding assay using an avidin-biotin complex. Specifically, one titanium disc was placed in each well of a 24-well polystyrene plate, and then blocked with a blocking buffer (0.1 M NaHCO3 (pH 8.6), 5 mg/ml BSA, 0.02% NaN3 (optional), filter sterilize) for at least one hour. […] Each titanium disc was treated with 50 μl of 1% SDS solution to stop the reaction, and the absorbance at 405 nm was measured.

PDLSC cells = assay: cell viability test (trypan blue count) on peptide-coated titanium discs; assay type: cell-based; conditions: for cytotoxicity for cells: administered alone, 3 days of incubation, FIG. 5; for Total cell number (viable cells), Average: average of #1 and #2; for Total cell number (viable cells), Average / Total cell number (viable cells), #1 / Total cell number (viable cells), #2: PDLSC, 3 days culture, disc coated per Table 2 (peptides 100 μM, BMP-2 100 ng/ml); for Total cell number (viable cells), #1: replicate #1; for Total cell number (viable cells), #2: replicate #2
Protocol: In order to evaluate whether or not a titanium binding peptide-linked osteogenic peptide (SEQ ID NO: 3 or SEQ ID NO: 4) and a titanium-binding peptide (SEQ ID NO: 1) are cytotoxic when these peptides are administered alone, a cell viability test was performed.
Specifically, one titanium disc was placed in each well of a 24-well low-attachment polystyrene plate and blocked with a blocking solution (0.1 M NaHCO3 (pH 8.6), 5 mg/ml BSA, 0.02% NaN3 (optional), filter sterilize) for at least 1 hour. Next, the blocking solution was discarded, and each well was washed three times or more with a washing solution (DPBS: Dulbeccos phosphate buffered saline), after which 50 μl of the solution shown in Table 2 below was dispensed and coated on the surface of each titanium disc. Each well was incubated at room temperature for 15 hours, and then washed three times or more with a washing solution (DPBS). Next, 3×10^4 PDLSC cells suspended in 50 μl of a medium (Minimum Essential Medium Eagle Alpha Modifications, Hyclone, USA) containing 10% FBS (Fetal Bovine Serum) and 1% antibiotic-antimycotic solution (Thermo Fisher Scientific, USA) were dispensed per titanium disc. […] Next, the cells were detached, stained with trypan blue, and counted with a hematocytometer to determine the number of viable cells.

[2] = test system: periodontal ligament stem cells (PDLSCs); assay: mineralization of periodontal ligament stem cells (Alizarin red S) on coated titanium discs; assay type: cell-based; conditions: day 18; significant p<0.05, not significant p>0.05
Protocol: Specifically, one titanium disc was placed in each well of a 24-well low-attachment polystyrene plate and blocked with a blocking solution (0.1 M NaHCO3 (pH 8.6), 5 mg/ml BSA, 0.02% NaN3 (optional), filter sterilize) for at least 1 hour. […] Each well was incubated at room temperature for 15 hours, and then washed three times or more with a washing solution (DPBS). Next, 3×10^4 PDLSC cells suspended in 50 μl of a medium (Minimum Essential Medium Eagle Alpha Modifications, Hyclone, USA) containing 10% FBS (Fetal Bovine Serum) and 1% antibiotic-antimycotic solution (Thermo Fisher Scientific, USA) were dispensed per titanium disc.

[3] = maximum binding amount of titanium-binding peptide, avidin-biotin binding assay
Protocol: To examine the maximum binding amount of the titanium-binding peptide TBP (SEQ ID NO: 1) per unit area of the titanium disc surface, a binding assay using an avidin-biotin complex was performed. Specifically, one titanium disc was placed in each well of a 24-well polystyrene plate, and then blocked with a blocking buffer (0.1 M NaHCO3 (pH 8.6), 5 mg/ml BSA, 0.02% NaN3 (optional), filter sterilize) for at least one hour. Next, the blocking buffer was discarded, and each titanium disc was strongly washed six times or more with a washing buffer (TBS+0.1% [v/v] Tween-20), after which 50 μl of each of the titanium-binding peptide TBP (SEQ ID NO: 1) of Example 1 and the peptides TBP-C(SEQ ID NO: 2) and ZBP (SEQ ID NO: 5, Korean Patent Application No. 10-2015-0048441) of Comparative Examples 1 and 2, which were biotin-labeled, synthesized, separated and purified in Example 3-1, was dispensed to the surface of each titanium disc at a concentration ranging from 100 nM to 40 mM. Each titanium disc was incubated at room temperature for 15 hours, and then washed strongly with a washing buffer, and 50 μl of a 1:500 dilution of ExtrAvidin-peroxidase (Cat. #E2886, Sigma-Aldrich, USA) in a blocking buffer was dispensed to the surface of each titanium disc. Each titanium disc was incubated at room temperature for 1 hour, and then washed strongly with a washing buffer, after which 50 μl of a substrate solution (2,2′-AZINO-BIS, Cat. #A3219, Sigma-Aldrich, USA) was dispensed to the surface of each titanium disc and allowed to react at room temperature for 20 minutes so as to develop color. Each titanium disc was treated with 50 μl of 1% SDS solution to stop the reaction, and the absorbance at 405 nm was measured.

[4] = luminescent image analysis with enhanced chemiluminescence (ECL) solution; assay type: binding; conditions: ECL solution as substrate, FIG. 2
Protocol: Specifically, washing was performed at least three times with suitable washing solution to remove 2,2′-AZINO-BIS used as a substrate in the above procedure, and then analysis was performed with a luminescent image analyzer using enhanced chemiluminescence (ECL) solution.

concentration showing the maximum absorbance value ([3]; 100 nM to 40 mM tested, absorbance at 405 nm, FIGS. 3 and 4) [µM] | maximum amount of titanium-binding peptide bound to the surface of one titanium disc ([3]; back-calculation from molecular weight and dispensing amount, disc diameter 10 mm) [µg] | amount of titanium-binding peptide fixed per mm^2 of the titanium disc surface ([3]; disc diameter 10 mm) | binding to titanium disc detected by luminescent image analyzer [4] | Compound | binding to the titanium disc surface (absorbance at 405 nm) [1] | cytotoxicity for cells (PDLSC cells) | Total cell number (viable cells), Average (PDLSC cells) | Total cell number (viable cells), #1 (PDLSC cells) | Total cell number (viable cells), #2 (PDLSC cells) | mineralization (absorbance at 570 nm), difference versus NT (negative control) group [2]
100 | 8.025 | about 0.1022 μg per mm^2 | binds to a titanium disc | SLNYTGHRPVVH-NH2 [TBP] | binds to the titanium disc surface in a concentration-dependent manner | not cytotoxic | 7.0 × 10^4 | 7.0 × 10^4 | 7.0 × 10^4 | no statistically significant difference
– | – | – | – | GLRSKSKKFRRPDIQYPDA-NH2 [Osteogenic peptide, reference compound] | – | – | 7.0 × 10^4 | 7.5 × 10^4 | 6.5 × 10^4 | –
– | – | – | – | SLNYTGHRPVVHGLRSKSKKFRRPDIQYPDA-NH2 [TBP-osteogenic peptide] | – | not cytotoxic | 7.8 × 10^4 | 7.5 × 10^4 | 8.0 × 10^4 | –
– | – | – | hardly bind to a titanium disc | VSPFGTKWSPFV (Zirconia Binding Peptide) [ZBP] | do not bind to the titanium disc surface | – | – | – | – | –
– | – | – | – | CC[C@H](C)[C@H](NC(=O)[C@H](CC(=O)O)NC(=O)[C@@H]1CCCN1C(=O)[C@H](CCCNC(=N)N)NC(=O)[C@H](CCCNC(=N)N)NC(=O)[C@H](Cc1ccccc1)NC(=O)[C@H](CCCCN)NC(=O)[C@H](CCCCN)NC(=O)[C@H](CO)NC(=O)[C@H](CCCCN)NC(=O)[C@H](CO)NC(=O)[C@H](CCCNC(=N)N)NC(=O)[C@H](CC(C)C)NC(=O)CNC(=O)CCCCCNC(=O)[C@H](Cc1c[nH]cn1)NC(=O)[C@@H](NC(=O)[C@@H](NC(=O)[C@@H]1CCCN1C(=O)[C@H](CCCNC(=N)N)NC(=O)[C@H](Cc1c[nH]cn1)NC(=O)CNC(=O)[C@@H](NC(=O)[C@H](Cc1ccc(O)cc1)NC(=O)[C@H](CC(N)=O)NC(=O)[C@H](CC(C)C)NC(=O)[C@@H](N)CO)[C@@H](C)O)C(C)C)C(C)C)C(=O)N[C@@H](CCC(N)=O)C(=O)N[C@@H](Cc1ccc(O)cc1)C(=O)N1CCC[C@H]1C(=O)N[C@@H](CC(=O)O)C(=O)N[C@@H](C)C(N)=O [TBP-Linker-osteogenic peptide] (H-SLNYTGHRPVVH[Ahx]GLRSKSKKFRRPDIQYPDA-NH2) | – | not cytotoxic | 6.8 × 10^4 | 6.0 × 10^4 | 7.5 × 10^4 | –

Compound | concentration showing the maximum absorbance value ([3]; 100 nM to 40 mM tested, absorbance at 405 nm, FIGS. 3 and 4) [µM] | maximum amount of titanium-binding peptide bound to the surface of one titanium disc ([3]; back-calculation from molecular weight and dispensing amount, disc diameter 10 mm) [µg] | amount of titanium-binding peptide fixed per mm^2 of the titanium disc surface ([3]; disc diameter 10 mm) | binding to titanium disc detected by luminescent image analyzer [4] | binding to the titanium disc surface (absorbance at 405 nm) [1] | cytotoxicity for cells (PDLSC cells) | Total cell number (viable cells), Average (PDLSC cells) | Total cell number (viable cells), #1 (PDLSC cells) | Total cell number (viable cells), #2 (PDLSC cells) | mineralization (absorbance at 570 nm), difference versus NT (negative control) group [2]
SLNATGARAVVA [TBP-C] | – | – | – | hardly bind to a titanium disc | do not bind to the titanium disc surface | – | – | – | – | –
